# Experiments:
# P388 leukemia cells = assay: antiproliferative effect against P388 leukemia cells (MTT); assay type: cell-based; conditions: Mus musculus; murine P388 leukemia cells, 48-h exposure; mean ± S.D., n in parentheses
# Experimental: (§1) The crude ethanolic extract and essentially pure compound were tested for toxicity against murine P388 leukemia cells and cells derived from human colon (HT-29) and lung (A549) tumors. P388 cells obtained from Dr. J. Mayo, National Cancer Institute, Bethesda Md., were maintained in Roswell Park Memorial Institute (RPMI) medium 1640 supplemented with 10% horse serum. HT-29 and A-459 human tumor cells were obtained from the American Type Culture Collection (Rockville, Md.) and maintained in RPMI medium 1640 supplemented with 10% fetal bovine serum. All cell lines were cultured in plastic tissue culture flasks and kept in an incubator at 37° C. in humidified air containing 5% CO2. Antibiotic-free stock cultures of P388 cells were subcultured to 10^5 cells/ml by dilution in fresh growth medium at 2 to 3 day intervals. The mean generation time of primary P388 cultures was 14 to 17 hr. HT-29 and A549 cells were subcultured after dissociation with trypsin-EDTA at weekly intervals.
# (§2) To assess the antiproliferative effects of agents against P388, HT-29, and A549 cells, 200 μl cultures (96-well tissue culture plates, Nunc, Denmark) were established at 1×10^5 cells/ml (4000 cells/cm^2 for HT-29 and A549) in drug-free medium or medium containing the crude extract at a final dilution of 1:500 of test compound at various concentrations. Solvent for all dilutions was methanol, which was removed from plates under vacuum. All experimental cultures were initiated in medium containing Gentamicin sulfate ([…]; Schering Corporation, Kenilworth, N.J.). After 48-h exposures, P388 cells were enumerated using 3-[4,5-Dimethylthiazol-2-yl]-2,5-diphenyltetrazolium bromide (MTT) as described below (Alley, M. C., et al.[1988] Cancer Res. 48:589).
# (§3) To quantitate the effects on cell proliferation, 75 μl of warm growth medium containing 5 mg/ml MTT was added to each well and cultures were returned to the incubator for 90 minutes. To spectrophotometrically quantitate MTT, plates were centrifuged (900×g, 5 minutes), culture fluids removed by aspiration, and 200 μl of acidified isopropanol (2 ml concentrated HCl/liter isopropanol) added per well. The absorbance of the resulting solutions were measured at 570 nm with a plate reader (MR700 Microplate Reader, Dynatech, Laboratories, Chantilly, Va.). […] A linear relationship between tumor cell number and formazan produced was found over the range of cell densities observed in these experiments.
# A549 lung tumor cells = assay: antiproliferative effect against A549 lung tumor cells (MTT); assay type: cell-based; conditions: human lung tumor cells, mean ± S.D., n in parentheses
# Experimental: as §1, §2, §3
# [1] = lymphocyte viability (LCV) assay; assay type: cell-based, murine; conditions: mouse, splenocytes, percentage of positive LCV control (no compound)
# Experimental: The pure compounds were tested for immunosuppressive effects in the MLR assay and for specific cytotoxicity effects in the lymphocyte viability (LCV) assay both using murine splenocytes. Cellular proliferation was determined using incorporation of ^3 H-thymidine and a modified form of the M. T. T. assay (Mosmann, T. [1983] "Rapid colorimetric assay for cellular growth and survival: Application to proliferation and cytotoxicity assays," J. Immunol. Methods, 65:55-63). Responses were reported as a percent of the positive MLR or LCV control. As a general rule, a low MLR value combined with a high LCV value indicates immunosuppressive activity.
# ^b Viability (LCV) of lymphocytes as measured by metabolism of M.T.T.
# Results are expressed as a percentage of the positive LCV control respons
# HT-29 colon tumor cells = assay: antiproliferative effect against HT-29 colon tumor cells (MTT); assay type: cell-based; conditions: human colon tumor cells, mean ± S.D., n in parentheses
# Experimental: as §1, §2, §3
# murine splenocytes = assay: two-way mixed lymphocyte reaction (MLR); assay type: cell-based; conditions: Mus musculus, Splenocyte, percentage of positive MLR control (no compound); for activity at 0.01 µg/well: 0.01 ug/well; for activity at 0.1 µg/well: 0.1 ug/well; for activity at 1 µg/well: 1 ug/well; for activity at 10 µg/well: 10 ug/well
# Experimental: The crude ethanolic extract was tested in the two-way mixed lymphocyte reaction (MLR) and a CV-1 cytotoxicity assay at a 1X concentration of the crude extract, using murine splenocytes. Cellular proliferation was measured using incorporation of ^3 H-thymidine.
# The pure compounds were tested for immunosuppressive effects in the MLR assay and for specific cytotoxicity effects in the lymphocyte viability (LCV) assay both using murine splenocytes. […] Responses were reported as a percent of the positive MLR or LCV control. As a general rule, a low MLR value combined with a high LCV value indicates immunosuppressive activity.
# ^a Twoway murine mixed lymphocyte response. Results are expressed as
# percentage of the positive MLR control response (no compound).
IC50 (P388 leukemia cells) [µg/mL],IC50 (A549 lung tumor cells) [µg/mL],IC50 (HT-29 colon tumor cells) [µg/mL],Structure (SMILES),viability ([1]; 0.01 ug/well) [%],viability ([1]; 0.1 ug/well) [%],viability ([1]; 1 ug/well) [%],viability ([1]; 10 ug/well) [%],activity at 0.01 µg/well (murine splenocytes) [%],activity at 0.1 µg/well (murine splenocytes) [%],activity at 1 µg/well (murine splenocytes) [%],activity at 10 µg/well (murine splenocytes) [%]
1.44 ± 0.28,2.3 ± 0.7,1.06 ± 0.11,C#CC(O)C=CCCCCCCCCCCCCCC(C)C (stereo not drawn) [SP10101],82,49,7,10,21,0,0,–
1.21 ± 0.73,1.6 ± 0.1,1.66 ± 0.47,C#CC(O)C=CCCCCCCCCCCCCCCC (stereo not drawn) [SP10098],80,61,21,2,24,0,0,0

# Second part, the compound before the results:
Structure (SMILES),IC50 (P388 leukemia cells) [µg/mL],IC50 (A549 lung tumor cells) [µg/mL],IC50 (HT-29 colon tumor cells) [µg/mL],viability ([1]; 0.01 ug/well) [%],viability ([1]; 0.1 ug/well) [%],viability ([1]; 1 ug/well) [%],viability ([1]; 10 ug/well) [%],activity at 0.01 µg/well (murine splenocytes) [%],activity at 0.1 µg/well (murine splenocytes) [%],activity at 1 µg/well (murine splenocytes) [%],activity at 10 µg/well (murine splenocytes) [%]
C#CC(O)C=CCCCCCCCCCCC(C)CCCC (stereo not drawn) [SP10100],1.58 ± 0.51,1.56 ± 0.06,0.86 ± 0.06,78,42,12,8,21,0,0,0
C#CC(O)C=CCCCCCCCCCC=CCCCCC(C)C (stereo not drawn) [SP10102],1.63 ± 0.29,2.9 ± 0.34,1.46 ± 0.06,67,45,15,0,20,0,0,0
C#CC(O)C=CCCCCCCCCCC=CCCCCCC (stereo not drawn) [SP10099],1.23 ± 0.53,1.75 ± 0.06,1.66 ± 0.15,67,34,13,22,33,0,0,0
